Data from patent US11471512B2, “Pharmaceutical compositions of a peptide” (Merck Sharp & Dohme Corp., priority 2019, dated 2022).
Starred links: 1 amine or outer side, 2 acyl side, 3 side chain; linkers in the order of their positions; H or OH if unused. Non-standard residues stand in square brackets, D forms with d. Residues, ends and D or L forms follow the SMILES beside them. Groups on a side chain read outwards from the residue. *: point of attachment. γGlu = O=C(O)[C@H](CCC(=O)[*:2])N[*:1]; Palmitoyl = CCCCCCCCCCCCCCCC(=O)*; Aib = CC(C)(N)C(=O)O

Assays:
[1] = Water solubility of the peptide as a function of pH; assay type: physicochemical; conditions: between pH 4 and pH 6
[2] = Chemical stability of the peptide in aqueous formulation as a function of pH; assay type: physicochemical; conditions: above pH 7.6

water solubility [1]: poor water solubility | chemical stability [2]: poor chemical stability
Structure (SMILES): CCCCCCCCCCCCCCCC(=O)N[C@@H](CCC(=O)N[C@@H](CCC(=O)NCCCC[C@H](NC(=O)[C@H](CC(=O)O)NC(=O)[C@H](CO)NC(=O)[C@@H](NC(=O)[C@H](Cc1ccccc1)NC(=O)[C@@H](NC(=O)CNC(=O)[C@H](CCC(N)=O)NC(=O)C(C)(C)NC(=O)[C@@H](N)Cc1c[nH]cn1)[C@@H](C)O)[C@@H](C)O)C(=O)N[C@@H](CO)C(=O)N[C@@H](CCCCN)C(=O)N[C@@H](Cc1ccc(O)cc1)C(=O)N[C@@H](CC(C)C)C(=O)N[C@@H](CC(=O)O)C(=O)NC(C)(C)C(=O)N[C@@H](CCCNC(=N)N)C(=O)N[C@@H](C)C(=O)N[C@@H](C)C(=O)N[C@@H](CCC(N)=O)C(=O)N[C@@H](CC(=O)O)C(=O)N[C@@H](Cc1ccccc1)C(=O)N[C@H](C(=O)N[C@@H](CCC(N)=O)C(=O)N[C@@H](Cc1c[nH]c2ccccc12)C(=O)N[C@@H](CC(C)C)C(=O)N[C@@H](CCSC)C(=O)N[C@@H](CC(N)=O)C(=O)N[C@H](C(=O)N[C@@H](CCCCN)C(=O)N[C@@H](CCC(N)=O)C(=O)O)[C@@H](C)O)C(C)C)C(=O)O)C(=O)O [peptide of SEQ ID NO. 1, HUQGTFTSD K(γGlu-γGlu-C16) SKYLD aibRAAQDFVQWLMNTKγGlu-amide] (H-H[Aib]QGTFTSDK([γGlu-γGlu-Palmitoyl])SKYLD[Aib]RAAQDFVQWLMNTKQ-OH; N-terminus and C-terminus assumed)
